What was measured:
Assay type in all cases: cell-based
TLR8 [1] = target: T1, TLR8 (Homo sapiens, UniProt Q9NR97); assay: PBMC assay for TLR8 (TNFα in supernatants by ELISA); design: Peripheral blood mononuclear cells (PBMCs) from human blood were isolated; endogenous in cells; host or cells: human PBMCs; settings: human PBMCs incubated with compound overnight, MC50 = concentration at which 50% of the maximum induction is seen
T1 sequence (Q9NR97 27-1041): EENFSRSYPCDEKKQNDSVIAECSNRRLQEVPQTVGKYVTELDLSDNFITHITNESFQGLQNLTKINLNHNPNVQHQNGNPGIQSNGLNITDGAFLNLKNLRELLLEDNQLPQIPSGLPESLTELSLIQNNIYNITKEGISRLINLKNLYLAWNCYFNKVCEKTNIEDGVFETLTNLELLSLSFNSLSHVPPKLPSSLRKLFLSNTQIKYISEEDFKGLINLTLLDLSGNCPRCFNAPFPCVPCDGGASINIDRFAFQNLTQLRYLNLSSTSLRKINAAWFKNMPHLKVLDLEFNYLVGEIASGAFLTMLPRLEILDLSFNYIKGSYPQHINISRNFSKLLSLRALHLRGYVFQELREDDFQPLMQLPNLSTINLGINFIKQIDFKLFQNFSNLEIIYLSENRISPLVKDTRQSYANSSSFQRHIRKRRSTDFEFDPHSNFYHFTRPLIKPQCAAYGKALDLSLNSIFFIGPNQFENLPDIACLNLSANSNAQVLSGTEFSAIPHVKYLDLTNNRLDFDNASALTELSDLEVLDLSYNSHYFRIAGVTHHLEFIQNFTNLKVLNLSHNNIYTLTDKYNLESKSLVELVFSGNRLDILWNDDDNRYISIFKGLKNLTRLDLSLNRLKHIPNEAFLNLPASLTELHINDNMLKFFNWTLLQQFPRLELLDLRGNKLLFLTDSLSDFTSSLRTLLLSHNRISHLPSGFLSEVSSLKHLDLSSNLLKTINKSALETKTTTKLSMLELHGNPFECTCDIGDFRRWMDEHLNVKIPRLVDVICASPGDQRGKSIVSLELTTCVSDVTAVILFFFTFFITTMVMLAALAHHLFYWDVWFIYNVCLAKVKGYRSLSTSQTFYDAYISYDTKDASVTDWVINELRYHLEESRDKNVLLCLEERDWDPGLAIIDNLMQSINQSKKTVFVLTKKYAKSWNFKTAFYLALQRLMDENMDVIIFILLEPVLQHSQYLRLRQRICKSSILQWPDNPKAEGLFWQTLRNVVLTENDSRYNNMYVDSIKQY
Description: (§1) Peripheral blood mononuclear cells (PBMCs) from human blood were isolated using BD Vacutainer Cell Preparation Tubes with sodium citrate. Cells were incubated with compound overnight. TLR8 activity was assayed by measuring the amount of TNFα in supernatants by ELISA. TLR7 activity was assayed by measuring the amount of IFNα in supernatants by ELISA (R&D Systems). […] The results of this assay are shown below in Tables 2 and 3.
(§2) MC50 numbers are represented as factors of ten, for example, + indicates an MC50 value of ×10^4, or a value in the tens of thousands of nanomolar (nM range); ++ indicates an MC50 value of ×10^3, or a value in the thousands; +++ indicates an MC50 value of ×10^2, or a value in the hundreds; and ++++ indicates an MC50 value of ×10^1 or 10°, or a value in the tens or ones.

TLR8 [2] = target: T1, TLR8; assay: TLR8 activity, MC50 values (procedure only by reference to Gorden et al. and Zhu et al.); settings: assay format not given
Description: Activity of the compounds can be assessed according to procedures described in, e.g., Gorden et al., Journal of Immunology 177, pp. 8164-8170 (2006) and Zhu et al., Molecular Immunology, vol. 45 (11), pp. 3238-3242 (2008).
MC50 values for TLR8 activity are, for example, as shown below: […]

TLR7 = target: T2, TLR7 (Homo sapiens, UniProt Q9NYK1); assay: PBMC assay for TLR7 (IFNα in supernatants by ELISA); design: Peripheral blood mononuclear cells (PBMCs) from human blood were isolated; endogenous in cells; host or cells: human PBMCs; settings: human PBMCs incubated with compound overnight, MC50 = concentration at which 50% of the maximum induction is seen
T2 sequence (Q9NYK1 27-1049): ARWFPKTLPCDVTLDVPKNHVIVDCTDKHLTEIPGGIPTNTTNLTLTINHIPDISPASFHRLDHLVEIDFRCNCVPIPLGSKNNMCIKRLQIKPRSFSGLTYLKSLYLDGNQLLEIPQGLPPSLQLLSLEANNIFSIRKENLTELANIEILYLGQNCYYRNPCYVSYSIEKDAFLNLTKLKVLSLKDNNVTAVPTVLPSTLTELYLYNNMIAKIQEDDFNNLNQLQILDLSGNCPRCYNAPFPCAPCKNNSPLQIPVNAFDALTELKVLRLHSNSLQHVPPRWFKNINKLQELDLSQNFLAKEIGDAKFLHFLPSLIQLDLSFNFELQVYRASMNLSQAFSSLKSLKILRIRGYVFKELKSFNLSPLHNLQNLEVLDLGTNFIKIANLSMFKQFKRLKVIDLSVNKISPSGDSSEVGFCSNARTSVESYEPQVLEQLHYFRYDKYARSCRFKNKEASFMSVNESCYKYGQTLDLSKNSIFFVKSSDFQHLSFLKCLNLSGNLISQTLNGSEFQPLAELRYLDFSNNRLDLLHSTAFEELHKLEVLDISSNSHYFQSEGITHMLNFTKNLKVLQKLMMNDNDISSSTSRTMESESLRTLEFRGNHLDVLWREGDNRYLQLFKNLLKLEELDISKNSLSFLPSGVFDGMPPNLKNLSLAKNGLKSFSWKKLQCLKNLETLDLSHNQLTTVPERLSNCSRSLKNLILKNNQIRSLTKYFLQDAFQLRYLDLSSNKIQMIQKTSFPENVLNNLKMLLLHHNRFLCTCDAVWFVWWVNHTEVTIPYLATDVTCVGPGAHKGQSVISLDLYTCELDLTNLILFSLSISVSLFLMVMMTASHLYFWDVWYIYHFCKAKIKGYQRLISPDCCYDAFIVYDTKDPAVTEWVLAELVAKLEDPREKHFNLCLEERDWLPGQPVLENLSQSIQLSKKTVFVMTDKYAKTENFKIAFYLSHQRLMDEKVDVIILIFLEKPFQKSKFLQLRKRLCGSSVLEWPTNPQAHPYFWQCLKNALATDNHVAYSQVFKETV
Description: as §1, §2

Compound	EC50 (TLR8 [1]) [µM]	EC50 (TLR8 [2]) [µM]	EC50 (TLR7) [µM]
CCOC(=O)C1=Cc2ccc(-c3ccc(C(=O)N(C)C)cc3)cc2N=C(N)C1 [Compound 154, (1E,4E)-ethyl 2-amino-8-(4-(dimethylcarbamoyl)phenyl)-3H-benzo[b]azepine-4-carboxylate]	0.1 to 1	0.116	
CCCN(CCC)C(=O)C1=Cc2ccc(-c3ccc(O)cc3)cc2N=C(N)C1 [Compound 195, (1E,4E)-2-amino-8-(4-hydroxyphenyl)-N,N-dipropyl-3H-benzo[b]azepine-4-carboxamide]	0.1 to 1		0.1 to 1
CCCN(CCC)C(=O)C1=Cc2ccc(-c3ccc(C(=O)N4CCCCC4)cc3)cc2N=C(N)C1 [Compound 126, (1E,4E)-2-amino-8-(4-(piperidine-1-carbonyl)phenyl)-N,N-dipropyl-3H-benzo[b]azepine-4-carboxamide]	0.1 to 1		1 to 10
CCCN(CCCO)C(=O)C1=Cc2ccc(-c3ccc(/C=C/C(=O)OCC)cc3)cc2N=C(N)C1 [Compound 220, (E)-Ethyl 3-(4-((1E,4E)-2-amino-4-((3-hydroxypropyl)(propyl)carbamoyl)-3H-benzo[b]azepin-8-yl)phenyl)acrylate]	0.1 to 1		10 to 100
CCOC(=O)C1=Cc2ccc(-c3cncnc3)cc2N=C(N)C1 [Compound 144, (1E,4E)-ethyl 2-amino-8-(pyrimidin-5-yl)-3H-benzo[b]azepine-4-carboxylate]	0.001 to 0.1		1 to 10
CCCN(CC(C)O)C(=O)C1=Cc2ccc(-c3ccc(C(=O)N4CCCC4)cc3)cc2N=C(N)C1 (centres unmarked) [Compound 104, (1E,4E)-2-amino-N-(2-hydroxypropyl)-N-propyl-8-(4-(pyrrolidine-1-carbonyl)phenyl)-3H-benzo[b]azepine-4-carboxamide]	0.001 to 0.1		1 to 10
CCCN(CCC)C(=O)C1=Cc2ccc(-c3cccnc3)cc2N=C(N)C1 [Compound 133, (1E,4E)-2-amino-N,N-dipropyl-8-(pyridin-3-yl)-3H-benzo[b]azepine-4-carboxamide]	0.001 to 0.1		1 to 10
CCCN(CCC)C(=O)C1=Cc2ccc(-c3ccc(C(=O)OCC)cc3)cc2N=C(N)C1 [Compound 139, ethyl 4-((1E,4E)-2-amino-4-(dipropylcarbamoyl)-3H-benzo[b]azepin-8-yl)benzoate]	0.1 to 1		1 to 10
NC1=Nc2cc(-c3ccc(C(=O)N4CCCC4)cc3)ccc2C=C(C(=O)N2C[C@@H](O)[C@H](O)C2)C1 [Compound 112, (4-((1E,4E)-2-amino-4-((3R,4R)-3,4-dihydroxypyrrolidine-1-carbonyl)-3H-benzo[b]azepin-8-yl)phenyl)(pyrrolidin-1-yl)methanone]	1 to 10		10 to 100
CCCN(CCC)C(=O)C1=Cc2ccc(-c3ccc(C(=O)OCOCC)cc3)cc2N=C(N)C1 [Compound 207, Ethoxymethyl 4-((1E,4E)-2-amino-4-(dipropylcarbamoyl)-3H-benzo[b]azepin-8-yl)benzoate]	1 to 10		1 to 10
CC(C)CN(CC(C)C)C(=O)C1=Cc2ccc(-c3ccc(C(=O)N4CCCC4)cc3)cc2N=C(N)C1 [Compound 103, (1E,4E)-2-amino-N,N-diisobutyl-8-(4-(pyrrolidine-1-carbonyl)phenyl)-3H-benzo[b]azepine-4-carboxamide]	1 to 10		1 to 10
CCCN(CCCO)C(=O)C1=Cc2ccc(-c3ccc(C(=O)N4CC[C@H](O)C4)cc3)cc2N=C(N)C1 [Compound 182, (1E,4E)-2-amino-N-(3-hydroxypropyl)-8-(4-((S)-3-hydroxypyrrolidine-1-carbonyl)phenyl)-N-propyl-3H-benzo[b]azepine-4-carboxamide]	0.001 to 0.1		1 to 10
CCCN(CCC)C(=O)C1=Cc2ccc(-c3cccc(C#N)c3)cc2N=C(N)C1 [Compound 136, (1E,4E)-2-amino-8-(3-cyanophenyl)-N,N-dipropyl-3H-benzo[b]azepine-4-carboxamide]	0.001 to 0.1		1 to 10
CCOC(=O)C1=Cc2ccc(-c3cccc(C(=O)N(C)C)c3)cc2N=C(N)C1 [Compound 147, (1E,4E)-ethyl 2-amino-8-(3-(dimethylcarbamoyl)phenyl)-3H-benzo[b]azepine-4-carboxylate]	0.1 to 1		1 to 10
CCCN(CCCO)C(=O)C1=Cc2ccc(-c3ccccc3C(=O)OCC)cc2N=C(N)C1 [Compound 204, Ethyl 2-((1E,4E)-2-amino-4-((3-hydroxypropyl)(propyl)carbamoyl)-3H-benzo[b]azepin-8-yl)benzoate]	0.1 to 1		1 to 10
CCCN(C[C@H](C)O)C(=O)C1=Cc2ccc(-c3ccc(C(=O)N4CCCC4)cc3)cc2N=C(N)C1 (single isomer, unassigned) [Compound 105]	0.001 to 0.1		1 to 10
CCCN(CCC)C(=O)C1=Cc2ccc(-c3ccc(C(=O)OCC)c(F)c3)cc2N=C(N)C1 [Compound 210, Ethyl 4-((1E,4E)-2-amino-4-(dipropylcarbamoyl)-3H-benzo[b]azepin-8-yl)-2-fluorobenzoate]	0.1 to 1		1 to 10
CCCN(CCC)C(=O)C1=Cc2ccc(-c3ccc(C(=O)OC)cc3)cc2N=C(N)C1 [Compound 206, Methyl 4-((1E,4E)-2-amino-4-(dipropylcarbamoyl)-3H-benzo[b]azepin-8-yl)benzoate]	0.1 to 1		1 to 10
CCCN(CC(C)(C)O)C(=O)C1=Cc2ccc(-c3ccc(C(=O)N4CCCC4)cc3)cc2N=C(N)C1 [Compound 117, (1E,4E)-2-amino-N-(2-hydroxy-2-methylpropyl)-N-propyl-8-(4-(pyrrolidine-1-carbonyl)phenyl)-3H-benzo[b]azepine-4-carboxamide]	0.1 to 1		10 to 100

— patent US8524702B2, “Substituted benzoazepines as toll-like receptor modulators” (VentiRx Pharmaceuticals, Inc., priority 2009, dated 2013)
